# According to publication PMC4062819, “N-Demethylation and N-oxidation of imipramine in rat thoracic aortic endothelial cells” (In Vitro Cellular & Developmental Biology. Animal, 2014):
# Experiments:
# [1] = test system: T1, FMO (flavin-containing monooxygenase); test: imipramine N-oxide formation in cell homogenate, HPLC-UV; format: biochemical, Rattus norvegicus; conditions: NADPH-regenerating system, pH 7.4, 37 °C, apparent Km, FMO isoform unresolved
# T1 construct: gene Fmo1; native, homogenate of cultured thoracic aortic endothelial cells; FMO isoform not resolved
# From the text: imipramine N-oxide formation in cell homogenate, HPLC-UV on FMO (flavin-containing monooxygenase)
# CYP2C11 and CYP3A2 = conditions: read-out: K m (μmol/L); NADPH-regenerating system; pH 7.4; 37 °C; apparent Km; homogenate, mixed CYPs assigned by anti-CYP antibodies
# From the text: desipramine (N-demethylate) formation in cell homogenate, HPLC-UV on CYP2C11 and CYP3A2
# [2] = test system: T1, FMO (flavin-containing monooxygenase); test: inhibition of imipramine N-oxidation in cell homogenate, HPLC-UV; format: biochemical, Rattus norvegicus; conditions: competitive with imipramine, methimazole 1 μmol/L, NADPH-regenerating system, 37 °C, FMO isoform unresolved, read-out: apparent K i
SMILES,Km [1] [µM],Km (CYP2C11 and CYP3A2) [µmol/L],Ki [2] [nM]
CN(C)CCCN1c2ccccc2CCc2ccccc21 [imipramine],20 ± 4.5,39.9 ± 5.3,–
Cn1cc[nH]c1=S [methimazole],–,–,800
